{"source": "patent US4604238A", "about": "“Analogs of calcitonin” (Armour Pharmaceutical Company, priority 1984, dated 1986)", "key": {"[1]": {"test_system": "serum calcium concentration", "method": "Biological Assay of Calcitonin Analogs In Vivo\nRats were divided into four groups of seven animals, and each group was assigned at random to a dose of standard or test solution. Low and high doses were chosen from the linear portion of the dose-response curve. For the salmon calcitonin standard, the values were 0.7 and 2.1 ng. peptide/100 g. body weight (BW). This dose approximates 3 and 9 MU/100 g. BW. Peptides were given by subcutaneous injection (0.2 ml/100 g. BW) and blood was withdrawn 1 hour later for serum calcium determination. Sera are processed and analyzed within two hours of collection. Results were analyzed within two hours of collection."}, "[2]": {"conditions": "literature values, Experientia 32(9), 1104-1106 (1976); cited from earlier work"}}, "note": "Bridge positions count the residues as written; N and C are the ends. Peptide text beside a SMILES is read from it."}
{"compound": "CC(C)C[C@H](NC(=O)CNC(=O)[C@@H]1CSSC[C@H](N)C(=O)NCC(=O)N[C@@H](CO)C(=O)N[C@@H](CC(C)C)C(=O)N[C@@H](CO)C(=O)N[C@@H]([C@@H](C)O)C(=O)N1)C(=O)NCC(=O)N[C@@H](CCCCN)C(=O)N[C@@H](CC(C)C)C(=O)N[C@@H](CO)C(=O)N[C@@H](CCC(N)=O)C(=O)N[C@@H](CCC(=O)O)C(=O)N[C@@H](CC(C)C)C(=O)N[C@@H](Cc1c[nH]cn1)C(=O)N[C@@H](CCCCN)C(=O)N[C@@H](CC(C)C)C(=O)N[C@@H](CCC(N)=O)C(=O)N[C@H](C(=O)N1CCC[C@H]1C(=O)N[C@@H](CCCNC(=N)N)C(=O)N[C@H](C(=O)N[C@@H](CC(N)=O)C(=O)N[C@H](C(=O)NCC(=O)N[C@@H](CO)C(=O)NCC(=O)N[C@H](C(=O)N1CCC[C@H]1C(N)=O)[C@@H](C)O)[C@@H](C)O)[C@@H](C)O)[C@@H](C)O", "note": "[[Gly^2,Ser^3,Gly^8,des-Tyr^22]SCT, [Gly^2,Ser^3,Gly^8,des-Tyr^22]salmon calcitonin] (H-CGSLSTCGLGKLSQELHKLQTPRTNTGSGTP-NH2; disulfide 1-7)", "values": [{"measurement": "biological potency", "setting": "[1]; rat, in vivo, sc", "value": 8600, "unit": "IU/mg"}]}
{"compound": "CC(C)C[C@H](NC(=O)[C@H](CCCCN)NC(=O)CNC(=O)[C@H](CC(C)C)NC(=O)[C@@H](NC(=O)[C@@H]1CSSC[C@H](N)C(=O)N[C@@H](CO)C(=O)N[C@@H](CC(N)=O)C(=O)N[C@@H](CC(C)C)C(=O)N[C@@H](CO)C(=O)N[C@@H]([C@@H](C)O)C(=O)N1)C(C)C)C(=O)N[C@@H](CO)C(=O)N[C@@H](CCC(N)=O)C(=O)N[C@@H](CCC(=O)O)C(=O)N[C@@H](CC(C)C)C(=O)N[C@@H](Cc1c[nH]cn1)C(=O)N[C@@H](CCCCN)C(=O)N[C@@H](CC(C)C)C(=O)N[C@@H](CCC(N)=O)C(=O)N[C@H](C(=O)N[C@@H](Cc1ccc(O)cc1)C(=O)N1CCC[C@H]1C(=O)N[C@@H](CCCNC(=N)N)C(=O)N[C@H](C(=O)N[C@@H](CC(N)=O)C(=O)N[C@H](C(=O)NCC(=O)N[C@@H](CO)C(=O)NCC(=O)N[C@H](C(=O)N1CCC[C@H]1C(N)=O)[C@@H](C)O)[C@@H](C)O)[C@@H](C)O)[C@@H](C)O", "note": "[salmon calcitonin, Salmon calcitonin]", "values": [{"measurement": "potency of the standard salmon calcitonin used", "setting": "[1]; independently determined content of the standard", "value": "greater than 4,000 IU/mg"}]}
{"compound": "(1,7α-L-aminosuberic acid)eel calcitonin", "values": [{"measurement": "hypocalcemic potency", "setting": "[2]", "value": "about 3400 IU/mg"}]}
{"compound": "eel calcitonin [synthetic eel calcitonin]", "values": [{"measurement": "hypocalcemic potency", "setting": "[2]", "value": "around 4300 IU/mg"}]}
